The term IC50 denotes the concentration needed to halve the response being measured.

Results on 16 compounds are retold here after patent publication US20240376085A1 (Janssen Pharmaceutica NV, priority 2021, published 2024).

In one test the target is T1, IL-17A : IL-17RA binding (Homo sapiens, UniProt Q16552, K93Q).
T1 construct: Name: IL-17A-Flag
Kind of test: IL-17A(FLAG-tagged):IL-17RA(His-tagged) binding disruption Eu-HTRF assay, Protocol 1. The following applies: FLAG-IL-17A 2.5 nM at 2x final concentration; average if tested more than once. The source says:
An antibody directed against the FLAG tag of IL-17A (SEQ ID NO: 1) is labeled with the HTRF donor chromophore (Europium-cryptate). IL-17A is present as a dimer that is “locked into” this quaternary structure due to the formation of loop-spanning […] disulfide bridges. The construct of IL-17RA used in the assay excludes the […] portion of the receptor and is fused to a C-terminal 10×His tag (SEQ ID NO:2). An antibody directed against the His tag of the IL-17RA chimera is labeled with the HTRF acceptor chromophore (“D2”). The fluorescence-resonance energy transfer (FRET) depends on the vicinity of the donor chromophore to the acceptor, and interruption of the binding between the IL-17A and IL-17RA causes the reduction/loss of FRET. Therefore, this assay allows to evaluate the compound effect on the binding IL-17A and IL-17RA by monitoring the fluorescence intensity of donor vs acceptor. The assay was run using either Protocol 1 or Protocol 2 as described below.
Protocol 1. 40 nl of 2-fold serial diluted compound solution for total 22 dilution points is added into each well of a 1536-well, white, low-volume, non-binding plate (Greiner #782904), then 2 μl of FLAG tagged IL-17A at 2× final concentration (2.5 nM) in solution of PBS+0.01% Triton-X100 is added to each well. The assay plate is briefly centrifuged then incubated for 1 h at rt. A mixed solution is prepared containing 2×5 nM 10HIS×IL-17RA, 2×2.5 nM Eu-anti-FLAG (CISBIO), 2×5 nM D2-anti-HIS (CISBIO) in PBS+0.01% Triton-X100+200 mM Potassium Fluoride (Sigma 60238) and 2 μl of mix is added to each well of the assay plate. The plate is briefly centrifuged then incubated for 2 h at rt. The HTRF intensities at the wavelength of donor (620 nm) and acceptor (665 nm) are measured using BMG Pherastar. The ratio between intensities at two wavelengths is calculated and plotted against the compound concentration and the data is fitted to a one-site competition model to yield IC50 of the compound.

In test [1] the test system is IL-17A-induced G-CSF production in human normal keratinocyte (NHK). Nature of the test: NHK assay: IL-17A-induced G-CSF production in normal human keratinocytes. The test is classed as cell-based. The following applies: 24 h, IL-17A 5 ng/mL, average if tested more than once. Here is the method:
IL-17A acts directly on keratinocytes through binding to dimeric receptor IL-17RA/RC and drives the production of a number of inflammatory mediators known to be elevated in psoriasis lesional tissue. IL-17A small molecule inhibitors that block the IL-17A to interact with IL-17R would inhibit the IL-17A signaling in its targeted cells such as keratinocytes. The compound functional activity is evaluated for its impact on IL-17A-induced G-CSF production in human normal keratinocyte (NHK).
Adult normal human keratinocytes are cultured in keratinocyte growth medium (Lonza) in a flask till reaching ˜90% confluence, then cells are transferred to a 384-well plate at density of 3000-4000 cell/well. Recombinant human IL-17A (Gibco PHC9174) is pre-incubated with titrated compound or DMSO for 1 h at rt then added to the cell culture plate. The final concentration of IL-17A is 5 ng/mL and DMSO is 0.2%, in the culture containing 5% FBS. Cells are cultured/treated for 24 h at 37° C. Supernatants are collected and G-CSF production is measured through HTRF technology using Human G-CSF Kit (CisBio). G-CSF concentration was extrapolated from the standard curve and IC50 is determined using GraphPad Prism. Cell viability is also evaluated using CellTiter-Glo kit (Promega) and effect of compound on cell viability is compared to DMSO control.

Where only a bound is given, the exact number is not on record here.

T1 sequence (Q16552 with tags, fused parts or gaps K93Q): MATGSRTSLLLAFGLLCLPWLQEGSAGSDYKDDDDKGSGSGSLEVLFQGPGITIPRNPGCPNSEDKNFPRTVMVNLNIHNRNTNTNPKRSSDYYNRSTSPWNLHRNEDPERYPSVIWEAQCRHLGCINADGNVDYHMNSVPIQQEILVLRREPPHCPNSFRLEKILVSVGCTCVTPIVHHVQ

With `CC(C)(OC[C@H](NC(=O)c1nonc1C1CC1)c1nc2cc([C@H](NC(=O)CC34CC(F)(C3)C4)C3CC3)ccc2[nH]1)C(F)(F)F` [Example 166, 4-Cyclopropyl-N—((R)-1-(5-((R)-cyclopropyl(2-(3-fluorobicyclo[1.1.1]pentan-1-yl)acetamido)methyl)-1H-benzo[d]imidazol-2-yl)-2-((1,1,1-trifluoro-2-methylpropan-2-yl)oxy)ethyl)-1,2,5-oxadiazole-3-carboxamide], the IC50 is less than 50 nM at IL-17A : IL-17RA binding and less than 50 nM in test [1] (Homo sapiens, Keratinocyte).
In the case of `C[C@@H](NC(=O)CCC(F)(F)F)c1ccc2[nH]c([C@@H](NC(=O)c3csc(CCC(F)(F)F)n3)C3CCC(F)(F)CC3)nc2c1` [Example 224, N—((S)-(4,4-Difluorocyclohexyl)(5-((R)-1-(4,4,4-trifluorobutanamido)ethyl)-1H-benzo[d]imidazol-2-yl)methyl)-2-(3,3,3-trifluoropropyl)thiazole-4-carboxamide], the IC50 on IL-17A : IL-17RA binding was more than 100 nM; in test [1] (Homo sapiens, Keratinocyte), more than 100 nM.
Consider `C[C@@H](NC(=O)CCC(F)(F)F)c1ccc2[nH]c([C@@H](NC(=O)c3cncn3CCC(F)(F)F)C3CCC(F)(F)CC3)nc2c1` [Example 216, N—((S)-(4,4-Difluorocyclohexyl)(5-((R)-1-(4,4,4-trifluorobutanamido)ethyl)-1H-benzo[d]imidazol-2-yl)methyl)-1-(3,3,3-trifluoropropyl)-1H-imidazole-5-carboxamide], for which the half-inhibitory concentration (IC50) is more than 100 nM on IL-17A : IL-17RA binding and more than 100 nM in test [1] (Homo sapiens, Keratinocyte).
As for `C[C@@H](NC(=O)CCC(F)(F)F)c1ccc2[nH]c([C@@H](NC(=O)c3cnn(CCC4CC4)n3)C3CCC(F)(F)CC3)nc2c1` [Example 12, 2-(2-Cyclopropylethyl)-N—[(S)-(4,4-difluorocyclohexyl)-[6-[(1R)-1-(4,4,4-trifluorobutanoylamino)ethyl]-1H-benzimidazol-2-yl]methyl]triazole-4-carboxamide], the concentration for half-maximal inhibition (IC50) is 50 to 100 nM at IL-17A : IL-17RA binding and more than 100 nM in test [1] (Homo sapiens, Keratinocyte).
For `Cc1nonc1C(=O)N[C@H](c1nc2ccc([C@H](NC(=O)CC3CC(F)(F)C3)C3CC3)cc2[nH]1)[C@H]1CCCC(F)(F)C1` [Example 247, N—((S)-(6-((R)-Cyclopropyl(2-(3,3-difluorocyclobutyl)acetamido)methyl)-1H-benzo[d]imidazol-2-yl)((S)-3,3-difluorocyclohexyl)methyl)-4-methyl-1,2,5-oxadiazole-3-carboxamide] the same measures were less than 50 nM and less than 50 nM.
As to `C[C@@H](NC(=O)CCC(F)(F)F)c1ccc2[nH]c([C@@H](NC(=O)[C@H]3C[C@@H]3F)C3CCC(F)(F)CC3)nc2c1` [Example 98, (1R,2S)—N—((S)-(4,4-Difluorocyclohexyl)(5-((R)-1-(4,4,4-trifluorobutanamido)ethyl)-1H-benzo[d]imidazol-2-yl)methyl)-2-fluorocyclopropane-1-carboxamide], the 50% inhibitory concentration (IC50) on IL-17A : IL-17RA binding is more than 100 nM; in test [1] (Homo sapiens, Keratinocyte), more than 100 nM.
With `Cc1nonc1C(=O)N[C@H](c1nc2ccc([C@H](NC(=O)CC3CC(F)(F)C3)C3CC3)cc2[nH]1)[C@H]1C[C@@H](CC(F)(F)F)C1` (single isomer, unassigned) [Example 244], the IC50 at IL-17A : IL-17RA binding is more than 100 nM; in test [1] (Homo sapiens, Keratinocyte) it was more than 100 nM.
For `CC(C)c1nocc1C(=O)N[C@H](c1nc2cc([C@@H](C)NC(=O)CCC(F)(F)F)ccc2[nH]1)C1CCC(F)(F)CC1` [Example 204, N—((S)-(4,4-Difluorocyclohexyl)(5-((R)-1-(4,4,4-trifluorobutanamido)ethyl)-1H-benzo[d]imidazol-2-yl)methyl)-3-isopropylisoxazole-4-carboxamide], the half-inhibitory concentration (IC50) is less than 50 nM on IL-17A : IL-17RA binding and less than 50 nM in test [1] (Homo sapiens, Keratinocyte).
As for `Cc1nonc1C(=O)N[C@@H](COC1CC(F)(F)C1)c1nc2ccc([C@H](NC(=O)CC3CC(F)(F)C3)C3CC3)cc2[nH]1` [Example 256, N—((R)-1-(6-((R)-Cyclopropyl(2-(3,3-difluorocyclobutyl)acetamido)methyl)-1H-benzo[d]imidazol-2-yl)-2-(3,3-difluorocyclobutoxy)ethyl)-4-methyl-1,2,5-oxadiazole-3-carboxamide], the concentration for half-maximal inhibition (IC50) is more than 100 nM on IL-17A : IL-17RA binding and more than 100 nM in test [1] (Homo sapiens, Keratinocyte).
Turning to `C[C@@H](NC(=O)CCC(F)(F)F)c1ccc2[nH]c([C@@H](NC(=O)c3conc3C3CC3)C3CCC(F)(F)CC3)nc2c1` [Example 209, 3-Cyclopropyl-N—((S)-(4,4-difluorocyclohexyl)(5-((R)-1-(4,4,4-trifluorobutanamido)ethyl)-1H-benzo[d]imidazol-2-yl)methyl)isoxazole-4-carboxamide], the IC50 was 50 to 100 nM at IL-17A : IL-17RA binding and less than 50 nM in test [1] (Homo sapiens, Keratinocyte).
Take `Cc1nonc1C(=O)N[C@@H](CC1(C(F)(F)F)CC1)c1nc2ccc([C@H](NC(=O)CC3CC(F)(F)C3)C3CC3)cc2[nH]1` [Example 242, N—((S)-1-(6-((R)-Cyclopropyl(2-(3,3-difluorocyclobutyl)acetamido)methyl)-1H-benzo[d]imidazol-2-yl)-2-(1-(trifluoromethyl)cyclopropyl)ethyl)-4-methyl-1,2,5-oxadiazole-3-carboxamide]: the IC50 was more than 100 nM at IL-17A : IL-17RA binding and more than 100 nM in test [1] (Homo sapiens, Keratinocyte).
In the case of `Cc1nonc1C(=O)N[C@H](c1nc2ccc([C@H](NC(=O)CC3CC(F)(F)C3)C3CC3)cc2[nH]1)C1CCOC(C)(C)C1` (single isomer, unassigned) [Example 174, N—((S)-(6-((R)-Cyclopropyl(2-(3,3-difluorocyclobutyl)acetamido)methyl)-1H-benzo[d]imidazol-2-yl)((R*)-2,2-dimethyltetrahydro-2H-pyran-4-yl)methyl)-4-methyl-1,2,5-oxadiazole-3-carboxamide], the concentration for half-maximal inhibition (IC50) is more than 100 nM at IL-17A : IL-17RA binding and 50 to 100 nM in test [1].
Take `C[C@@H](NC(=O)CCC(F)(F)F)c1ccc2[nH]c([C@@H](NC(=O)c3cnnn3CC3CC(F)(F)C3(F)F)C3CCC(F)(F)CC3)nc2c1` (stereo partly drawn) [Example 82, N—((S)-(4,4-Difluorocyclohexyl)(5-((R)-1-(4,4,4-trifluorobutanamido)ethyl)-1H-benzo[d]imidazol-2-yl)methyl)-1-((2,2,3,3-tetrafluorocyclobutyl)methyl)-1H-1,2,3-triazole-5-carboxamide]: the concentration for half-maximal inhibition (IC50) on IL-17A : IL-17RA binding was more than 100 nM; in test [1] (Homo sapiens, Keratinocyte) it was more than 100 nM.
With `C[C@@H](O[C@H](C)C(F)(F)F)[C@H](NC(=O)c1nonc1C1CC1)c1nc2ccc([C@H](NC(=O)C[C@H]3CC3(F)F)C3(C#N)CC3)cc2[nH]1` [Example 269, N-((1R,2R)-1-(6-((S)-(1-Cyanocyclopropyl)(2-((S)-2,2-difluorocyclopropyl)acetamido)methyl)-1H-benzo[d]imidazol-2-yl)-2-(((R)-1,1,1-trifluoropropan-2-yl)oxy)propyl)-4-cyclopropyl-1,2,5-oxadiazole-3-carboxamide], the IC50 on IL-17A : IL-17RA binding is less than 50 nM; in test [1] (Homo sapiens, Keratinocyte), less than 50 nM.
Consider `C[C@@H](NC(=O)CCC(F)(F)F)c1ccc2[nH]c([C@@H](NC(=O)c3cnnn3CCCC(F)(F)F)C3CCC(F)(F)CC3)nc2c1` [Example 20, N—[(S)-(4,4-Difluorocyclohexyl)-[6-[(1R)-1-(4,4,4-trifluorobutanoylamino)ethyl]-1H-benzimidazol-2-yl]methyl]-3-(4,4,4-trifluorobutyl)triazole-4-carboxamide], for which the IC50 is more than 100 nM at IL-17A : IL-17RA binding and 50 to 100 nM in test [1] (Homo sapiens, Keratinocyte).
Take `CC(C)n1nccc1C(=O)N[C@@H](C[C@H]1CCC(F)(F)C1)c1nc2ccc([C@H](NC(=O)CC3CC(F)(F)C3)C3CC3)cc2[nH]1` [Example 236, N—((S)-1-(6-((R)-Cyclopropyl(2-(3,3-difluorocyclobutyl)acetamido)methyl)-1H-benzo[d]imidazol-2-yl)-2-((R)-3,3-difluorocyclopentyl)ethyl)-1-isopropyl-1H-pyrazole-5-carboxamide]: the IC50 at IL-17A : IL-17RA binding was more than 100 nM; in test [1] (Homo sapiens, Keratinocyte), more than 100 nM.
